Reference: patent US12685777B2, “Compositions, systems, and methods for modulating a target gene” (The Board of Trustees of the Leland Stanford Junior …, priority 2022, dated 2026)
pEC50: −log10 of the molar value. Read-outs that look alike come from different tables or passages of the source.

Key:
[1] = system: BRD4, Pol II ser 2 phos, H3K27ac occupancy; experiment: ChIP-seq of BRD4, Pol II ser 2 phos, H3K27ac in KARPAS422 cells; type: cell-based, human
Protocol: Cells were washed in PBS and crosslinked for 12 minutes in CiA Fix Buffer (50 mM HEPES pH 8.0, 1 mM EDTA, 0.5 mM EGTA, 100 mM NaCl) with addition of formaldehyde to a final concentration of 1%. The crosslinking reaction was quenched by glycine added at 0.125 M final concentration. Crosslinked cells were centrifuged at 1,000×g for 5 minutes. Nuclei were prepared by 10 minute incubation of resuspended pellet in CiA NP-Rinse 1 buffer (50 mM HEPES pH 8.0, 140 mM NaCl, 1 mM EDTA, 10% glycerol, 0.5% IPEGAL CA-630, 0.25% Triton X100) followed by wash in CIA NP-Rinse 2 buffer (10 mM Tris pH 8.0, 1 mM EDTA, 0.5 mM EGTA, 200 mM NaCl). The pellet was resuspended in CiA Covaris Shearing Buffer (0.1% SDS, 1 mM EDTA pH 8.0, 10 mM Tris HCl pH 8.0) with 1000× protease inhibitors (Roche) and sonicated for 20 minutes with Covaris E220 sonicator (Peak Power 140, Duty Factor 5.0, Cycles/Burst 200). The distribution of fragments was confirmed with agarose gel. 300 μL of chromatin per ChIP was used with anti-BRD4 antibodies (Cell Signaling E2A7X). 50 μg of chromatin was used with anti-Pol II ser 2 phos (Abcam ab5095) and anti-Pol II ser 5 phos (ActiveMotif 3E8) antibodies. 25 μg of chromatin was used with anti-H3K27ac (Abcam ab4729). For each Pol II ser 2 phos, Pol II ser 5 phos, and H3K27ac ChIP, exactly 20 ng (for Pol II ser 2 phos and ser 5 phos) or 50 ng (for H3K27ac) Drosophila chromatin (ActiveMotif #53083) was spiked-in with 2 μL spike-in-chromatin-specific antibody (ActiveMotif #61686). After overnight incubation at 4° C. in IP buffer (50 mM HEPES pH 7.5, 300 mM NaCl, 1 mM EDTA, 1% Triton X100, 0.1% sodium deoxycholic acid salt (DOC), 0.1% SDS), Ips were washed twice with IP buffer, once with DOC buffer (10 mM Tris pH 8, 0.25 M LiCl, 0.5% IPEGAL CA-630, 0.5% sodium deoxycholic acid salt (DOC), 1 mM EDTA), and, once with 10 mM Tris/1 mM EDTA buffer (TE) pH 8. Ips and inputs were reverse-crosslinked in TE/0.5% SDS/0.5 μg/μL proteinase K for 55° C./3 hours then 65° C./18 hours, then DNA was purified using a PCR cleanup spin column (Takara #74609). The sequencing library preparation was performed using NEBNext Ultra II DNA kit (#E7645S). Libraries were sequenced on an Illumina NovaSeq (Novogene).
The data quality was checked using fastqc. The raw reads were trimmed from adapters with trim_galore (parameters: —paired—255 Ilumine) and raw reads were aligned to hg38 human genome assembly and the dm6 fly genome assembly using bowtie2 (parameters: —local—maxins 1000). Low quality reads, duplicated reads and reads with multiple alignments were removed using samtools (Li et al., Bioinformatics (2009) 25: 2078-2079) and Picard (broadinstitute.github.io/picard/). Macs2 was used to map position of peaks with FDR cutoff of 0.05. Bedtools (Quinlan et al, Bioinformatics (2010) 26: 841-842) was used to find consensus set of peaks by merging peaks across multiple conditions (bedtools merge), count number of reads in peaks (bedtools intersect—c) and generate genome coverage (bedtools genomecov-bga). deepTools (Ramirez et al., Nucleic Acids Research (2016) 44: W160-W165). […] This procedure was carried out on a per-antigen basis (i.e., the H3K27ac ChIPs were treated separately from the Pol II ser 2 phos ChIPs which were separate from the Poll II ser 5 phos ChIPs). The average percentage of reads in each sample that mapped to the fly genome was 1.8±1.4% (mean±s.d.). All browser tracks and metaprofiles shown were calculated with spike-in normalized and input-subtracted data. The peak differential analysis and PCA analysis was performed using DESeq2^82.
BRD4 and other BET proteins have previously been implicated largely in transcriptional elongation, particularly in mediating P-TEFb/CDK9 activation of RNA Polymerase II ([…]) elongation activity by phosphorylation of serine 2 of the C-terminal domain (CTD) of Pol II ([…] ser 2 phos). […]

KARPAS422 = experiment: Cell viability (resazurin/PrestoBlue) of KARPAS422 DLBCL cells; type: cell-based, human
Protocol: 30,000 cells were plated in 100 μL media per well of a 96 well plate and treated with drug for indicated times and doses. A resazurin-based indicator of cell health (PrestoBlue, ThermoFisher #P50200) was added for 1.5 hours after which the fluorescence ratio at 560/590 nm was recorded. The background fluorescence was subtracted and the signal was normalized to DMSO-treated cells. EC50 measurements on cell lines were done with 4 biological repeats by separate cell passages maintained by 3 independent investigators. Fit of dose-response curves to data and statistical analysis was performed using drc package in R using the four-parameter log-logistic function.
These molecules were tested for their effect on viability of the chemotherapy (CHOP, or cyclophosphamide, hydroxydaunorubicin, Oncovin, and prednisone)-resistant DLBCL cell line, KARPAS422. […] Cell killing was essentially complete at 72 hours (FIG. 27, Panel D).

[2] = after 2 hours, of 51,678 consensus peaks

CNC(=O)COc1cc2cc(Nc3nc(N4CCC(C(=O)NCCCCCCCNC(=O)C[C@@H]5N=C(c6ccc(Cl)cc6)c6c(sc(C)c6C)-n6c(C)nnc65)CC4)ncc3Cl)cc(OC)c2n(C)c1=O [JWZ-7-7, (S)-1-(5-chloro-4-((8-methoxy-1-methyl-3-(2-(methylamino)-2-oxoethoxy)-2-oxo-1,2-dihydroquinolin-6-yl)amino)pyrimidin-2-yl)-N-(7-(2-(4-(4-chlorophenyl)-2,3,9-trimethyl-6H-thieno[3,2-f][1,2,4]triazolo[4,3-a][1,4]diazepin-6-yl)acetamido)heptyl)piperidine-4-carboxamide]
Time to Pol II serine 2 phosphorylation (transcriptional elongation) at BCL6 targets ([1]; 10 nM): ≤ 15 min
Loss of BRD4 from enhancers and super enhancers ([1]; ChIP-seq): about 10%
Fraction of total BRD4 recruited / relocalized to BCL6 target genes ([1]; Karpas 422, one hour): about 10%
pEC50 (KARPAS422; Homo sapiens, KARPAS-422, KARPAS422 (CHOP-resistant, TP53-mutant DLBCL), 72 hours after addition of drug, read-out: EC50 of cell killing / cell viability): 8.89

CNC(=O)COc1cc2cc(Nc3nc(N4CCC(C(=O)NCCCCCCCNC(=O)C[C@@H]5N=C(c6ccc(Cl)cc6)c6c(sc(C)c6C)-n6c(C)nnc65)CC4)ncc3Cl)cc(OC)c2n(C)c1=O [TCIP1]
Increase of BRD4 at promoters of BCL6 target genes / genomic BCL6 binding sites ([1]; ChIP-seq, one hour): 50%
H3K27ac peaks decreased [1, 2]: 70 peaks
H3K27ac peaks increased [1, 2]: 126 peaks
pEC50 (KARPAS422; KARPAS422 (CHOP-resistant, TP53-mutant DLBCL), 72 hours after addition of drug, read-out: EC50 of cell killing / cell viability): 8.89
pEC50 (KARPAS422; KARPAS422, without cell cycle arrest, read-out: EC50 of cell viability without arrest): 8.96
